# Several values for one entry are separate records, joined by “and”; a condition that tells them apart may be missing. Equal values may be shown once.
# Assays:
# [1] = Pharmacokinetic study in mouse; format: in vivo, CD-1 mouse
# Method: Oral and IV doses were administered by oral gavage, or by tail vein injection in a 10% ethanol and 90% saline vehicle, respectively. For PO dosing, samples were taken at 0.167, 0.5, 1, 2, 4, 6 and 24 h p.d. For IV administration, samples were taken at 0.05, 0.167, 0.5, 1, 2, 4, 6 and 24 h p.d. Blood samples were centrifuged at 4° C. (2000 g, 5 minutes) to obtain plasma within 15 minutes after sample collection. The levels of Compound A were quantitated in mouse plasma by LC-MS/MS analysis. […] Typically, samples were injected onto an LC-MS/MS system using a Waters BEH Phenyl column. The aqueous mobile phase was water with 0.1% NH4OH (A), and the organic mobile phase was acetonitrile with 0.1% NH4OH (B). The gradient was as follows: 37% B for the first 0.2 min, increased to 44% B from 0.2 to 0.6 min, maintained at 44% B for 0.5 min, and decreased to 37% B within 0.05 min. The injection volume was 2 uL, and the total run time was 1.5 min with a flow rate of 0.6 mL/min. […] The ionization was conducted in the positive ion mode using the MRM transition [M+H]+m/z 563.5 parent ion to m/z 326.3 daughter ion, incorporating a turbo-ionspray interface. Eight to ten calibration standards were prepared in blank plasma of the relevant species providing a typical standard curve concentration range of 5-500 ng/mL. Pharmacokinetic parameters were calculated by noncompartmental methods using WinNonlin (version 5.3; Pharsight, St. Louis, Mo.). Parameters are presented as mean±S.D.
# [2] = Pharmacokinetic study in dog; format: in vivo, Beagle dog; details: 1 mg/kg
# Method: IV doses were administered by a single intravenous infusion over 1 minute into the cephalic vein in a 10% ethanol and 90% saline vehicle. At designated time points (predose, 0.083, 0.25, 0.5, 1, 2, 4, 8 and 24 h p.d.), the animals were restrained manually, and approximately 0.5 mL blood per time point was collected from non-injected cephalic vein into pre-cold EDTA-K2 tubes. Blood samples were put on wet ice and centrifuged at 4° C. to obtain plasma within 15 minutes of sample collection. The levels of Compound A were quantitated in dog plasma by LC-MS/MS analysis. […] Typically, samples were injected onto an LC-MS/MS system using a Waters BEH Phenyl column. The aqueous mobile phase was water with 0.1% NH4OH (A), and the organic mobile phase was acetonitrile with 0.1% NH4OH (B). The gradient was as follows: 37% B for the first 0.2 min, increased to 44% B from 0.2 to 0.6 min, maintained at 44% B for 0.5 min, and decreased to 37% B within 0.05 min. The injection volume was 2 uL, and the total run time was 1.5 min with a flow rate of 0.6 mL/min. […] The ionization was conducted in the positive ion mode using the MRM transition [M+H]+m/z 563.5 parent ion to m/z 326.3 daughter ion, incorporating a turbo-ionspray interface. Eight to ten calibration standards were prepared in blank plasma of the relevant species providing a typical standard curve concentration range of 5-500 ng/mL. Pharmacokinetic parameters were calculated by noncompartmental methods using WinNonlin (version 5.3; Pharsight, St. Louis, Mo.). Parameters are presented as mean±S.D.
# Plasma stability, mouse = format: in vitro ADME, CD-1 mouse; details: CD-1, pooled plasma, 37° C., read-out: Half-life in ex vivo blood plasma
# Description: Samples were quenched in methanol and analyzed by LC-MS/MS analysis.
# [3] = Prediction of human pharmacokinetics by interspecies scaling
# Description: PK endpoints of CL and VDss in mouse, rat and dog were used to scale to the corresponding parameters in human using a variety of allometric and interspecies scaling approaches as previously reported (Boxenbaum, Journal of Pharmacokinetics and Biopharmaceutics 10(2): 201-227, 1982; Jones et al., Journal of Pharmaceutical Sciences 100(10): 4074-4089, 2011; Lombardo et al., J Clin Pharmacol 53(2): 178-191, 2013a; Lombardo et al., J Clin Pharmacol 53(2): 167-177, 2013b; Mahmood & Balian, Xenobiotica 26(9): 887-895, 1996; Ring et al., Journal of Pharmaceutical Sciences 100(10): 4090-4110, 2011; Tang & Mayersohn, Journal of Pharmaceutical Sciences 95(8): 1783-1799, 2006; Tang & Mayersohn, Drug Metabolism and Disposition 33(9): 1297-1303, 2005; Vuppugalla et al., Journal of Pharmaceutical Sciences 100(10): 4111-4126, 2011). The likely predictive accuracy of each method was assessed based on visual inspection of the data fit, as well as values such as the R^2 and the allometric exponent, where appropriate.
# [4] = male, CD-1, mouse, plasma, iv, 5 mg/kg, IV bolus
# [5] = male, plasma, CD-1 mouse, IV bolus, 5 mg/kg
# [6] = male, plasma, CD-1 mouse, PO, 20 mg/kg
# [7] = male, plasma, Beagle dog, IV bolus
smiles,measurement,setting,value
"CC(C)N(C[C@H]1O[C@@H](n2cnc3c(N)ncnc32)[C@H](O)[C@@H]1O)[C@H]1C[C@@H](CCc2nc3cc(C(C)(C)C)ccc3[nH]2)C1 [Compound A, (2R,3R,4S,5R)-2-(6-amino-9H-purin-9-yl)-5-((((1r,3S)-3-(2-(5-(tert-butyl)-1H-benzo[d]imidazol-2-yl)ethyl)cyclobutyl)(isopropyl)amino)methyl)tetrahydrofuran-3,4-diol]",CL,"[1]; CD-1 mouse, IV bolus, 5 mg/kg",76.7 ± 11.5 mL/min/kg
same,t1/2,"[1]; CD-1 mouse, IV bolus, 5 mg/kg",68.4 ± 21 min
same,F,"[1]; CD-1 mouse, PO, 20 mg/kg",<1%
same,Vd,"[1]; male, CD-1, mouse, plasma, iv, 5 mg/kg, CD-1 mouse, IV bolus, 5 mg/kg, read-out: VDss",1.58 L/kg
same,clearance,[1]; [4],77 mL/min/kg
same,half-life,[1]; [4],66 min
same,Vd,"[1]; male, CD-1, mouse, plasma, iv, 5 mg/kg, mouse, read-out: Unbound VDss",11.4 L/kg
same,AUC(0-inf),[1]; [5],1.96 ± 0.3 µM·h
same,AUC(0-t),[1]; [5],1.95 ± 0.28 µM·h
same,Cmax,[1]; [5],7.99 ± 1.9 µM
same,MRT,[1]; [5],21 ± 3.6 min
same,Tmax,[1]; [5],3 min
same,AUC(0-t),[1]; [6],0.0014 µM·h
same,Cmax,[1]; [6],0.0019 µM
same,Tmax,[1]; [6],30 min
same,oral bioavailability (in words),"[1]; mouse, PO",low and negligible
same,CL,"[2]; Beagle dog, IV bolus",18.7 ± 1.7 mL/min/kg
same,clearance,"[2]; male, beagle, dog, plasma, iv, Beagle dog, IV bolus",19 mL/min/kg
same,Vd,"[2]; male, beagle, dog, plasma, iv, Beagle dog, IV bolus, read-out: VDss",2.44 L/kg
same,Vd,"[2]; male, beagle, dog, plasma, iv, dog, read-out: Unbound VDss",10.4 L/kg
same,AUC(0-inf),[2]; [7],1.6 ± 0.15 µM·h
same,AUC(0-t),[2]; [7],1.55 ± 0.16 µM·h
same,Cmax,[2]; [7],5.06 ± 0.6 µM
same,MRT,[2]; [7],130 ± 53.4 min
same,Tmax,[2]; [7],4.98 min
same,half-life,[2]; [7],816 min
same,half-life at 1 μM,"Plasma stability, mouse",> 120 min
same,Predicted human VDss,[3]; Consensus prediction,2.8 L/kg and 2.76 L/kg
same,Predicted human CL,[3]; Consensus prediction (excludes simple allometry),6.5 mL/min/kg
same,Predicted human CL,[3]; MLR rat-dog,11 mL/min/kg and 10.7 mL/min/kg
same,Predicted human VDss,"[3]; Oie-Tozer equation, rat and dog data",0.97 L/kg
same,Predicted human CL,[3]; Simple allometry,13.3 mL/min/kg
same,Predicted human VDss,[3]; Simple allometry,2.71 L/kg
same,allometric exponent for CL,[3]; Simple allometry,0.76
same,Predicted human VDss,[3]; Simple allometry - unbound,1.16 L/kg
same,Predicted human VDss,"[3]; Wajima equation, rat and dog data",6.2 L/kg
same,human CL estimates,"[3]; across multiple, diverse scaling approaches",6 to 8 mL/min/kg
same,Predicted human VDss,[3]; simple allometry (total and unbound) and Oie-Tozer equation,1 to 3 L/kg
same,Predicted human VDss,[3]; simple allometry using total and unbound terms,1.2 to 2.7 L/kg
